From publication PMC11237012, “Synthesis and preliminary evaluation of novel PET probes for GSK-3 imaging” (Scientific Reports, 2024)

Experiment: Radiochemical stability in isotonic NaCl solution (rad-TLC)
Format: physicochemical
Settings: 37 °C
Description: The stability of PET probes [^18F]2 and [^18F]6 was measured in isotonic NaCl solution (0.9% NaCl) and mouse and human serums at 37 °C for up to 120 min by rad-TLC at 0 min, 30 min, 60 min and 120 min post incubation. The results obtained are presented in Fig. 5 and SI-Figs. S10–S15, SI-Table S1. […] The plausible explanation of the instability of [^18F]6 could be attributed to the covalent interaction of [^18F]6’s SO2F group with primary amines of amino acid residues present in the protein rich mouse and human serums. In fact, in an unrelated study, Zhao et al. reported formation of sulfonamide bond between sulfuryl fluoride and primary amine of conserved lysine residues of different kinases. […] Based on 2’s favorable blood–brain barrier permeability, nanomolar binding affinity and PET probe [^18F]2’s excellent stability in both mouse and human serums, further in vivo evaluations were performed only with PET probe [^18F]2.
Stability of [^18F]2 and [^18F]6 was assessed in isotonic NaCl solution and human and mouse serums. To perform this stability assay, 100 µL of [^18F]2 (~ 37.0 MBq) or 100 µL of [^18F]6 (~ 37.0 MBq) as in final formulation was added to 100 µL of human serum or mouse serum in a microcentrifuge tube. The resultant mixture was incubated at 37 °C for 120 min. To assess the radiochemical stability of the probes, a small aliquot (~ 0.5 µL) was taken out from the mixture in triplicate at 0 min, 30 min, 60 min and 120 min during incubation, and analyzed on a rad-TLC using 0.5:9.5 methanol: chloroform as a mobile phase using i-TLC to estimate the stability of [^18F]2 or [^18F]6 at different time points post-incubation. After Stability preparative processes initial i-TLC development was considered as 0 min.

Measured: Percentage of intact probe

O=C(Nc1cnccc1-c1ccc([18F])cc1)c1ccnc(NC(=O)C2CC2)c1 [[^18F]2]
100 ± 0.0%: 0 min | 30 min | 60 min
